This is an account of results in patent US4975433A, “Aminomethyl derivatives of biologically active substances and enhanced delivery thereof across topical membranes” (priority 1989, dated 1990).

Each structure is given as a SMILES string. Values after ≈ are worked out from the molar mass of the structure shown. Values joined by “and” are separate entries in the source; they are usually repeats but may differ in a detail not shown here. Equal entries are not always repeated. Where two headings read alike, the source gives them in different places. Marks after values point to notes of the source that are not given here.

A short description of data set [1]: solubilities of prodrugs and parent drugs in selected solvents (Example 8). The note with it: for trend in IPM solubility: NMR of neat filtrates, UV.
Data set [2] in a line: stability of the bases in water, isopropyl myristate and moisture (NMR, TLC). It is filed as physicochemical. Particulars: for qualitative order of stability to atmospheric moisture: IPM solution, NMR; for stability in IPM: 24 hours after sonication for 3 hours; for degraded at 48 h: isopropyl myristate, atmospheric moisture, room temperature, two days, read-out: decomposition of base prodrugs in IPM filtrates. As to the method:
All the suspensions or solutions were prepared by sonicating mixtures of the drug or prodrugs in the appropriate solvent in sealed flasks for 3 hr. The sealed solutions or suspensions that resulted were allowed to sit at room temperature for 24 hr, then they were briefly (15 sec.) vortexed and 0.50 ml samples were removed and applied to the membranes (area=4.9 cm^2). After an additional 24 hr the remaining sealed suspensions of the prodrugs were filtered, the filtrates and residues were analyzed by inspection of their NMR spectra and TLC to determine if any decomposition of the prodrugs had taken place (none had), and the filtrates were analyzed by UV spectroscopy to determine if the amount of prodrug still in solution corresponded to the solubilities determined in separate experiments (they did). The filtrates were analyzed neat while the residues were dissolved in CDCl3 and the spectra were analyzed for the appearance of the C8 ---H absorption of theophylline at δ7.77 and the C6 ---H absorption of 5-FU at δ7.7. TLC analyses were run using ether as the eluents. The remaining suspensions of the parent drugs were also filtered and the filtrates were analyzed by UV spectroscopy to determine if the amount of drug still in solution corresponded to the solubilities determined in separate experiments (they did).
The derivatives are not stable in the presence of water. […] NMR experiments also supported the low stability of the derivatives in water. Solutions of the bases were prepared in dry DMSO-d6 and then D2 O was added stepwise to the solutions. […] Similar, decomposition of the bases was also observed in other protic solvents such as methanol and propylene glycol.
On the other hand, the stability of the bases in IPM was variable.
When the IPM filtrates, which were used to determine the IPM solubilities of II and III were exposed to atmospheric moisture at room temperature for two days, 50-80% decomposition of the base prodrugs in solution occurred and precipitation of theophylline resulted as determined by analysis of NMR spectra of the solutions and precipitates. The IPM solutions of the other bases eventually decomposed 1-10% upon prolonged exposure (two weeks) to atmospheric moisture. Although no quantitative data were determined, the qualitative order of stability of the theophylline bases to exposure to atmospheric moisture in IMP solution was V=VI>>IV>III>II,as determined by analysis of NMR spectra of their IPM solutions and precipitates from IPM solutions.

Data set [3] can be described thus: half-lives of hydrolysis of cytosine and 5-fluorocytosine derivatives in phosphate buffer. The note with it: for half-life: phosphate buffer; for pH dependence of hydrolysis rate: basic pH.
The conditions of data set [4]: mouse; for Kp, initial phase: 100000 uM.
Description: The diffusion experiments were performed in triplicate for each compound. Three female, hairless mice were sacrificed by cervical dislocation, and the entire dorsal skin removed by blunt dissection from the underlying tissues. The skins were secured with a rubber gasket to the diffusion cell, with the dermis in contact with the receptor phase. The receptor side of the cell was filled with isotonic phosphate buffer (pH 73 at 32°, 0.05 M, μ=0.15) with 1% formaldehyde added to inhibit microbial growth. The receptor phase was kept at a constant temperature of 32° and was stirred magnetically.
The donor phases were applied as suspensions (0.5 ml, 0.1 M) to the skin surface. […] Each sample was replaced by an equal amount of fresh buffer.
These last two steps were used to determine the mass balance. This part of the diffusion cell study is termed the first application.
Samples were obtained using the same schedule described above.
The slopes for each phase of the plotted lines were obtained by linear regression analysis (r>0.990); the slopes were then divided by the surface area of the diffusion cells (4.9 cm^2) to obtain a value for flux (J) in mg/cm^2 /h. The reported fluxes are the average flux of the three diffusion cells.
Data set [5] in a line: lipid and aqueous solubilities of 5-FC and its derivatives. It is filed as physicochemical. Particulars: for solubility / Solubility, water: distilled water (pH 5.5), approximate, decomposing; for solubility at 48 h / Solubility, IPM: isopropyl myristate; for solubility at 48 h: organic solvent or mixture, read-out: Solubility, IPM; for Solubility, IPM: 2880 min; for IPM solubility relative to other compound: XIV vs 5-FC molar basis, XIIb vs XIIa.

The mark [6] stands for this setting: isopropyl myristate, organic solvent or mixture, Solubility, IPM, stirred at room temperature 24 hr.
The mark [7] stands for this setting: water, pH 7, water, Solubility, water (apparent).
Where [8] appears, read: pH 7.1, Half-life of hydrolysis, cytosine derivatives.
[9] abbreviates: isopropyl myristate, organic solvent or mixture, Solubility, IPM, suspensions sonicated for 3 hr.
The mark [10] stands for this setting: pH 7.1, Half-life of hydrolysis, 5-FC derivatives.

By solubility is commonly meant the dissolved amount per volume that the medium holds. For the molecule `CCN(CC)Cn1cnc2c1c(=O)n(C)c(=O)n2C` [III, 7-(Diethylamino)methyltheophylline], the “trend in IPM solubility” value in data set [1] (IPM) was “III>IV>VI>II>V”. The solubility in data set [1] (setting [6]) is 32.5 mg/mL (≈ 122 mM). For the same molecule, the solubility in data set [1] (setting [7]) was more than 100 mg/mL. Moreover, in data set [2], the “qualitative order of stability to atmospheric moisture” value (shortened to “qualitative order of stability”) is reported as “V=VI>>IV>III>II”, the “stability in IPM” value was “stable in solution but the IPM insoluble material was theophylline” and the degraded at 48 h is 50 to 80%.
Consider `CN(C)Cn1cnc2c1c(=O)n(C)c(=O)n2C` [II], for which the solubility in data set [1] (isopropyl myristate, organic solvent or mixture, Solubility, IPM, both sonicated 3 hr and stirred 24 hr) is 7.6 mg/mL (≈ 32 mM); in data set [1] (setting [7]) it was more than 100 mg/mL. Moreover, the degraded at 48 h in data set [2] was 50 to 80%.
Consider `CCCN(CCC)Cn1cnc2c1c(=O)n(C)c(=O)n2C` [IV, 7-(Dipropylamino)methyltheophylline], for which, in data set [1] (IPM), the “trend in IPM solubility” value is recorded as “III>IV>VI>II>V”. The solubility in data set [1] (setting [6]) is 27.6 mg/mL (≈ 94.1 mM). Besides, in data set [1] (setting [7]), the solubility is more than 100 mg/mL. For the same molecule, in data set [2], the “qualitative order of stability” value is given as “V=VI>>IV>III>II” and the “stability in IPM” value was “stable in solution but the IPM insoluble material was theophylline”.
The term half-life denotes how long it takes for the measured level to halve. A high value points to slow decline. In data set [3] (setting [8]), `O=c1nc(NCN2CCOCC2)ccn1CN1CCOCC1` [IXb, Bis-N^4,1-(4'-morpholinyl)methylcytosine hydrate] registered a half-life of 9.72 min.
As to `Cn1c(=O)c2[nH]cnc2n(C)c1=O` [I], the solubility in data set [1] (isopropyl myristate, organic solvent or mixture) stood at 0.095 mg/mL (≈ 0.527 mM); in data set [1] (propylene glycol, organic solvent or mixture), 16.2 mg/mL (≈ 89.9 mM).
As for `Cn1c(=O)c2c(ncn2CN2CCOCC2)n(C)c1=O` [V, 7-(4'-Morpholinyl)methyltheophylline], the “Solubility, water (apparent)” value in data set [1] (1.0 ml water (pH 7.0) added to 100 mg, sonicated 10 sec, not accurate, rapid decomposition) is more than 100 mg/mL. In data set [1] (IPM), the “trend in IPM solubility” value was “III>IV>VI>II>V”. Besides, the solubility in data set [1] (setting [9]) was 1.3 mg/mL (≈ 4.65 mM). Also, the solubility in data set [1] (setting [7]) is approximately 100 mg/mL (≈ 358 mM). Further, in data set [2], the “qualitative order of stability” value is given as “V=VI>>IV>III>II” and the “stability in IPM” value is on record as “stable in IPM either in the solid phase or in solution”.
For the molecule `Cn1c(=O)c2c(ncn2CN2CCCC2)n(C)c1=O` [VI, 7-(Pyrrolidyl)methyltheophylline], in data set [1] (IPM), the “trend in IPM solubility” value was “III>IV>VI>II>V”. In data set [1] (setting [9]), the solubility was found to be 10.7 mg/mL (≈ 40.6 mM). In addition, the solubility in data set [1] (setting [7]) was more than 100 mg/mL. Also, in data set [2], the “qualitative order of stability” value was “V=VI>>IV>III>II” and the “stability in IPM” value is recorded as “stable in IPM either in the solid phase or in solution”.
In data set [3] (setting [8]), `O=c1nc(NCN2CCCCC2)ccn1CN1CCCCC1` [VIII, Bis-N^4,1-(1'-piperidinyl)methylcytosine] gave a half-life of 1.42 min.
Consider `O=c1c(F)cn(CN2CCOCC2)c(=O)n1CN1CCOCC1` [VIII], for which the solubility in data set [1] (setting [9]) is 11.8 mg/mL (≈ 35.9 mM); in data set [1] (setting [7]) it was more than 100 mg/mL.
In the case of `CN(C)CNc1ccn(CN(C)C)c(=O)n1` [X, Bis-N^4,1-(dimethylamino)methylcytosine hydrate], the half-life in data set [3] (setting [8]) worked out at 1 min.
The same measure, in the same setting: to `CN1CCN(CNc2ccn(CN3CCN(C)CC3)c(=O)n2)CC1` [XI, Bis-N^4,1-(4'-methyl-1'-piperazinyl)methylcytosine hydrate] belongs 27.2 min.
With `CN(C)CNc1nc(=O)n(CN(C)C)cc1F` [XIII, Bis-N^4,1-(dimethylamino)methyl-5-fluorocytosine hydrate], the “Kp, steady-state phase” value in data set [4] is recorded as 365 cm/h (× 10^3). The “Kp, initial phase” value in data set [4] is recorded as 149 cm/h (× 10^3). Further, the solubility in data set [5] is > 100000 µg/mL and > 400000 µM. For the same molecule, the solubility at 48 h in data set [5] came to 950 µM; in data set [5] (±SD), 0.23 mg/mL. Besides, the “pH dependence of hydrolysis rate” value in data set [3] was “hydrolyzed slower at basic pH”. Further, the half-life in data set [3] (pH 6, Half-life of hydrolysis) was found to be 0.51 min; in data set [3] (setting [10]), 0.74 min; in data set [3] (pH 8, Half-life of hydrolysis) it was 0.87 min.
Regarding `O=c1nc(NCN2CCCCC2)c(F)cn1CN1CCCCC1` [XIIa, bis-N^4,1-(1'-piperidinyl)methyl-5-fluorocytosine], the “Kp, steady-state phase” value in data set [4] is on record as 1671 cm/h (× 10^3). For the same molecule, in data set [5], the “Solubility, water” value is 10 mg/ml and 0.03 M; the “Solubility, IPM” value was 1.6 M(× 10^4). In data set [5] (±SD), the “Solubility, IPM” value is listed as 5.0 (0.9) mg/ml × 10^2. In data set [3] (setting [10]), this molecule showed a half-life of 0.89 min.
Regarding `O=c1nc(NCN2CCCCC2)c(F)cn1CN1CCCCC1` [XIIb, Bis-N^4,1-(1'-piperidinyl)methyl-5-fluorocytosine], in data set [4], the “Kp, steady-state phase” value is given as 716 cm/h (× 10^3) and the “Kp, initial phase” value is recorded as 174 cm/h (× 10^3). Moreover, in data set [5], the “IPM solubility relative to other compound” value is “twice”; the “Solubility, water” value was 25 mg/ml and 0.08 M; the “Solubility, IPM” value is given as 3.7 M(× 10^4). The “Solubility, IPM” value in data set [5] (±SD) is given as 12.0 (0.5) mg/ml × 10^2. The “Half-life of hydrolysis, 5-FC derivatives” value in data set [3] (pH 7.1 phosphate buffer 0.05 M, 24°) was 0.90(0.01) min and 0.90 min. Further, in data set [3] (pH 6, Half-life of hydrolysis), the half-life came out at 0.86 min. Besides, in data set [3] (pH 8, Half-life of hydrolysis), the half-life worked out at 0.79 min.
As for `CCN(CC)CNc1nc(=O)n(CN(CC)CC)cc1F` [XIV, Bis-N^4,1-(diethylamino)methyl-5-fluorocytosine hydrate], in data set [5], the “IPM solubility relative to other compound” value is listed as “approximately 230 times”; the solubility was > 100000 µg/mL and > 300000 µM; the solubility at 48 h was 9100 µM. Further, the solubility at 48 h in data set [5] (±SD) amounted to 2.71 mg/mL. In data set [3] (setting [10]), this molecule returned a half-life of 0.1 min.
Regarding `O=c1nc(NCN2CCCC2)c(F)cn1CN1CCCC1` [XV, Bis-N^4,1-(1'-pyrrolidyl)methyl-5-fluorocytosine hydrate], the solubility in data set [5] was > 100000 µg/mL and > 300000 µM. Besides, the solubility at 48 h in data set [5] stood at 610 µM; in data set [5] (±SD) it was 0.18 mg/mL. The “pH dependence of hydrolysis rate” value in data set [3] is given as “faster”. Besides, the half-life worked out at 1.01 min in data set [3] (pH 6, Half-life of hydrolysis); 1.05 min in data set [3] (setting [10]); 0.66 min in data set [3] (pH 8, Half-life of hydrolysis).
Consider `O=c1nc(NCN2CCOCC2)c(F)cn1CN1CCOCC1` [XVI, Bis-N^4,1-(4'-morpholinyl)methyl-5-fluorocytosine hydrate], for which the “Kp, steady-state phase” value in data set [4] is recorded as 213 cm/h (× 10^3). For the same molecule, the “Kp, initial phase” value in data set [4] is 73.9 cm/h (× 10^3). In data set [5], the solubility was 25000 µg/mL and 80000 µM. In addition, the solubility at 48 h in data set [5] was 350 µM; in data set [5] (±SD), 0.18 mg/mL. The “pH dependence of hydrolysis rate” value in data set [3] is given as “hydrolyzed slower at basic pH”. Besides, the half-life in data set [3] (pH 6, Half-life of hydrolysis) amounted to 1.19 min; in data set [3] (setting [10]), 9.1 min; in data set [3] (pH 8, Half-life of hydrolysis), 34.2 min.
As for `CN1CCN(CNc2nc(=O)n(CN3CCN(C)CC3)cc2F)CC1` [XVII, Bis-N^4,1-(4'-methyl-1'piperazinyl)methyl-5-fluorocytosine hydrate], the “Kp, steady-state phase” value in data set [4] is on record as 919 cm/h (× 10^3). Moreover, the “Kp, initial phase” value in data set [4] is listed as 67.3 cm/h (× 10^3). The solubility in data set [5] is > 100000 µg/mL and > 300000 µM. Also, the solubility at 48 h in data set [5] was 220 µM; in data set [5] (±SD), 0.071 mg/mL. In addition, the “pH dependence of hydrolysis rate” value in data set [3] was “hydrolyzed slower at basic pH”. Further, the half-life turned out to be 20.1 min in data set [3] (pH 6, Half-life of hydrolysis); 26.3 min in data set [3] (setting [10]); 28.5 min in data set [3] (pH 8, Half-life of hydrolysis).
